Entries after “also recorded” stand apart in the source; their conditions may differ. Ends that are not written are not given here. FAM = 5(6)-carboxyfluorescein
Experiments:
[1] = tested on: U87 cells; assay: LDH leakage assay (membrane integrity); type: cell-based, human; settings: FAM-labelled peptides, up to 20 µM, 48h, compared to 0.2% of Triton
Procedure: Membrane integrity was evaluated using LDH leakage assay (SIGMA-ALDRICH™ St. Louise, MO, USA), which measures lactate dehydrogenase release. Briefly, 1×10^4 cells were seeded 24h in 96-well plates before treatment with the peptides or peptide-drug conjugates, which was conducted in complete medium for 48h. Thereafter, LDH leakage was assessed according to the manufacturer's protocol. Untreated cells were defined as no leakage and 100% leakage was defined as total LDH release by lysing cells in 0.2% Triton X-100 in HKR buffer.
(§1) All figures are presented as mean ± SEM. The cell uptake data represent three independent experiments performed in duplicate. For toxicity measurements, a decrease in viability was considered significant at p <.001 using ANOVA Dunnett's multiple comparison test.

[2] = tested on: HeLa cells; assay: Confocal microscopy, association of FAM-labelled targeting peptide with cells; type: cell-based; settings: 20 µM, 30 minutes
Procedure: (§2) The human embryonic kidney 293 cell line (HEK 293) and human glioblastoma-astrocytoma, epithelial-like cell line U87 MG (American Type Culture Collection via LGC, Sweden) and cervical cancer HeLa cells were cultured in Dulbecco's Modified Eagle Medium (DMEM) with L-glutamine. Medium was supplemented with 10% FBS, sodium pyruvate (1 mM), penicillin (100 U/ml), streptomycin (100 µg/ml) and 1% nonessential amino acids (further denoted as complete medium) (PAA Laboratories GmbH, Austria). Cell cultures were cultivated at 37°C in a humidified 5% CO2 incubator.
U87 cells (1×10^4) were seeded in Lab-Tek® 8-well chamber slides to reach 50% confluence one day prior to experimentation. After 30 min of incubation with the peptide constructs in complete medium at 37°C, cells were washed four times with PBS, followed by the addition of trypan blue (0.1 %) in OptiMEM and examined using Olympus IX81 inverted microscope equipped with FluoView 1000 confocal system using a 60x water-immersion and 100x oil-immersion objectives and excitation at 488 nm (fluorescein). For the membrane association experiments the cells were incubated with FAM-labeled peptide for 30 min at 37°C in complete medium. After the incubation period, cells were washed once with PBS and re-suspended in fresh OptiMEM medium. […]

[3] = tested on: human glioma cells (U87); assay: Cellular internalization by confocal microscopy; type: cell-based; settings: 10 µM, 30 min incubation (Figure 3)
Procedure: (§3) U87 cells (1×10^4) were seeded in Lab-Tek® 8-well chamber slides to reach 50% confluence one day prior to experimentation. After 30 min of incubation with the peptide constructs in complete medium at 37°C, cells were washed four times with PBS, followed by the addition of trypan blue (0.1 %) in OptiMEM and examined using Olympus IX81 inverted microscope equipped with FluoView 1000 confocal system using a 60x water-immersion and 100x oil-immersion objectives and excitation at 488 nm (fluorescein). For the membrane association experiments the cells were incubated with FAM-labeled peptide for 30 min at 37°C in complete medium. After the incubation period, cells were washed once with PBS and re-suspended in fresh OptiMEM medium.
(§4) The cellular uptake of the chimeric peptides gHoPe2 and gHoPe3 in U87 cells, using confocal microscopy and flow cytometry is depicted in Figures 3 and 4, respectively.

[4] = tested on: human glioma cells; assay: Cellular uptake by flow cytometry (FACS); type: cell-based; settings: 30 min incubation (Figure 4)
Procedure: U87, HEK and Hela cells (5×10^4) were seeded 24 h prior to experiments into 24-well plates. Cells were incubated for 30 min in complete media after treatment with the peptide constructs. Thereafter, cells were washed four times with PBS and once with trypsin, suspended in ice-cold PBS and flow cytometry analysis was carried out with a BD LSR II flow cytometer (BD Biosciences, San Jose, CA, USA) equipped with a 488 nm argon laser and analyzed with FACSDiva software. The filter settings for excitation and emission were 480/530 nm bandpass (FL1) for FITC. Live cells were gated by forward/side scattering from a total of 10000 events.
as §4

[5] = tested on: intracranial glioblastoma; assay: Biodistribution of FAM-labelled peptides, intracranial tumour model; type: in vivo, mice; settings: i.v.; for uptake in lungs, heart, spleen, muscle and skin: animals with intracranial tumours, 3 h (Figure 8); for localization in intracranial tumour: 3 h before tissue collection, FAM fluorescence (Figures 6, 7)
Procedure: (§5) Localization of the peptide vectors was assessed postmortem after injecting FAM-labeled peptides in homozygous female nude mice (C.Cg/AnNTac-Foxn1nu, Taconic), bearing tumor xenografts either intracranially or subcutaneously. 8×10^5 U87 cells were resuspended in 100 µl (s.c tumor model) or in 5 µl (intracranial tumor model) of fresh DMEM medium, without serum and antibiotics. The xenografting was performed by implanting the cell suspension subcutaneously or intracranially into one of the striatums (stereotaxic coordinates A=+1, L=+2, V=+3.5). At the appearance of the first signs of tumor growth (for the subcutaneous tumors: tumor size of approx 300 mm^3; for the intracranial tumors: the first sign is usually weight loss), mice were injected i.v. (via tail vein) with the peptide constructs. For the biodistribution, 100 µl of 200 µM FAM-labeled peptide suspension (in saline) was used. This represents a dose of 4 mg/kg for a mouse of 20 g. At 3h post-injection, the animals were anesthetized and intracardially perfused with 50 ml of PBS, followed by 50 ml of fixation solution (4% w/v paraformaldehyde in PBS, pH 7.4). Tissues were collected, postfixed for 2h in the same fixation solution, cryoprotected in sucrose (10% for 24h, followed by 30% for 1 week, at 4°C), snap frozen in 2-methylbutane (AppliChem) kept on dry ice. The tissues were cut on a cryostat with a thickness of 10-15 µm, counterstained with DAPI (AppliChem) and mounted using Vectashield (Vector Labs) mounting media.
(§6) The biodistribution of FAM-labeled gHoPe2 was determined in two mouse tumour models. FAM-labeled gHo and gHoPe2 were injected 3h before tissue collection. The circulation time of 3 h was chosen from initial pilot experiments with 1 h, 3h, 6h and 24h circulation times, where the highest fluorescence in the tumor occurred at 3h.
Secondly, biodistribution of FAM-labeled gHo and gHoPe2, as well as FAM-labeled pVEC and gHoPe3 was assessed in a mouse model of intracranial glioblastoma. To estimate the general distribution of gHoPe2 within the glioma-containing brain, the whole coronal section was reconstructed from single microscopic images.

[6] = tested on: HEK cells; assay: Confocal microscopy, association of FAM-labelled targeting peptide with cells; type: cell-based, human; settings: 20 µM, 30 minutes
Procedure: as §2, §3
(§7) To confirm binding of the targeting peptide with glioma cells, gHo peptide was labeled with fluorescent marker FAM (see the composition in Table 1) and incubated with U87 glioma cells as well as with two non-neuronal cell lines, HeLa and HEK, for 30 minutes at the room temperature, followed by mild washing of the cells.

[7] = tested on: U87 glioma cells; assay: as above; type: cell-based, human
Procedure: as §2, §3, §7

[8] = tested on: subcutaneous U87 tumors; assay: Antitumour effect in vivo, tumour growth; set-up: species or system mice; settings: 8.3 mg/kg (369 µM, 100 µl) i.v. twice a week; Tukey post-hoc p<.05 (Figure 13)
Procedure: Localization of the peptide vectors was assessed postmortem after injecting FAM-labeled peptides in homozygous female nude mice (C.Cg/AnNTac-Foxn1nu, Taconic), bearing tumor xenografts either intracranially or subcutaneously. 8×10^5 U87 cells were resuspended in 100 µl (s.c tumor model) or in 5 µl (intracranial tumor model) of fresh DMEM medium, without serum and antibiotics. The xenografting was performed by implanting the cell suspension subcutaneously or intracranially into one of the striatums (stereotaxic coordinates A=+1, L=+2, V=+3.5). At the appearance of the first signs of tumor growth (for the subcutaneous tumors: tumor size of approx 300 mm^3; for the intracranial tumors: the first sign is usually weight loss), mice were injected i.v. (via tail vein) with the peptide constructs. For the biodistribution, 100 µl of 200 µM FAM-labeled peptide suspension (in saline) was used. This represents a dose of 4 mg/kg for a mouse of 20 g. […]
The tumor treatments were performed using 1 mg/kg doxorubicin (369 µM, 100 µl, for an animal of 20 g) and an equivalent dose (8.3 mg/kg) of dox-gHoPe2 (369 µM, 100 µl) i.v. twice a week. The subcutaneous tumor dimensions were measured using calibre; tumor volume was calculated as (length × width^2)/2.
The efficacy of dox-gHoPe2 was assessed in the model of subcutaneous U87 tumors. […]

[9] = tested on: U87 cells; assay: MTS cell viability (proliferation) assay; type: cell-based, human; settings: FAM-labelled peptides, up to 20 µM, 24h
Procedure: Long-term toxicity was evaluated using an MTS proliferation assay (Promega, Madison, WI, USA). The MTS assay measures the activity of mitochondrial dehydrogenases to convert tetrazolium salts into formazan. Briefly, 1×10^4 cells were seeded 24h in 96-well plates before treatment with the peptides or peptide-drug conjugates, which was conducted in complete medium for 24h. Thereafter, MTS proliferation assay was used according to the manufacturer's protocol. Untreated cells were defined as 100% viable.
as §1

[10] = tested on: subcutaneous U87 tumor; assay: Biodistribution of FAM-labelled peptides, subcutaneous tumour model; type: in vivo, mice; settings: for localization in tumor tissue: i.v., 3 h before tissue collection, FAM fluorescence of cryosections (Figure 5)
Procedure: as §5, §6
Firstly, a mouse model of subcutaneous U87 tumor was used. […] We detected no FAM-labeled gHo in tumor tissue and none of the peptides in the (intact) brain tissue, the kidney, and liver.

In the case of “NHQQQNPHQPPM-NH2 [gHo, glioma-homing targeting peptide]”, the “LDH leakage (membrane leakage)” value [1] is reported as “did not induce any significant membrane leakage”, the “binding to HeLa cells” value [2] is reported as “not and did not bind” and the Cellular internalization [3] is reported as “did not internalize”. The cellular uptake [4] was “did not internalize”, the “uptake in lungs, heart, spleen, muscle and skin” value [5] was “No uptake” and the “localization in intracranial tumour” value [5] was “not”. The “binding to HEK cells” value [6] was “not and did not bind”, the “Association of the targeting peptide gHo with glioma cells (U87)” value ([7]; 20 µM (Figure 2)) was “associated” and the “association of gHo with U87” value ([7]; FAM-labelled peptide, all tested concentrations 1-20 µM, 30 minutes, mild washing) was “confirmed association”.

In the case of “XCLLIILRRRIRKQAHAHSK-NHQQQNPHQPPM-NH2 [Dox-gHoPe2]”, the “tumor size versus untreated group” value [8] is reported as “significantly smaller”.

“LLIILRRRIRKQAHAHSK-NHQQQNPHQPPM-NH2 [FAM-gHoPe2]” was tested, and the “LDH leakage (membrane leakage)” value [1] was “did not affect cell viability”, the “LDH leakage (membrane leakage)” value ([1]; listed as gHoPe2) was “did not induce any significant membrane leakage” and the Cellular internalization [3] was “exhibited cellular uptake of varying degrees”. For the same substance, the cellular uptake [4] was “highest; also recorded: significantly differed from the uptake values of FAM-gHoPe3 (main effect p<.01, Tukey post hoc) and FAM-gHo (p<.001)”, the “cell viability (MTS)” value [9] was “did not affect cell viability” and the “cell viability (MTS)” value ([9]; listed as gHoPe2) was “did not induce any toxic effects”. The “localization in tumor tissue” value [10] was “localizes in tumours; also recorded: homing”, the “circulation time of the highest fluorescence in the tumor” value ([10]; initial pilot experiments with 1 h, 3h, 6h and 24h circulation times, tumour model not stated) was 3 h and the “uptake in lungs, heart, spleen, muscle and skin” value [5] was “No uptake”. The “presence in adjacent intact brain, kidney and liver” value ([5]; 3 h (Figure 7)) was “not”, the “localization in intracranial tumour” value [5] was “localizes in tumours” and the “localization in intracranial tumour” value ([5]; listed as FAM-labelled gHoPe2) was “global FAM localization in the tumour area”. The “localization in intracranial tumour” value ([5]; listed as gHoPe2) was “can be seen in the tumor area; also recorded: specific localization” and the “localization in the adjacent intact brain” value ([5]; whole coronal section, 3 h (Figure 6)) was “not”.

“LLIILRRRIRKQAHAHSK-NH2 [pVEC, 18-amino acid cell-penetrating peptide derived from murine vascular endothelial-cadherin, reference compound]” was tested, and the “LDH leakage (membrane leakage)” value [1] was “did not induce any significant membrane leakage”, the Cellular internalization [3] was “internalized very efficiently” and the “cell viability (MTS)” value [9] was “did not induce any toxic effects”.

In the case of “NHQQQNPHQPPM-NH2 [FAM-gHo] ({FAM}-NHQQQNPHQPPM-NH2; also: FAM label, place not given here) [gHo N-terminally labelled with 5(6)-carboxyfluorescein]”, the Cellular internalization [3] is reported as “no uptake” and the “localization in tumor tissue” value [10] is reported as “detected no”.

For “NHQQQNPHQPPM-LLIILRRRIRKQAHAHSK-NH2 [FAM-gHoPe3]”, the “LDH leakage (membrane leakage)” value [1] was “did not affect cell viability”, the “LDH leakage (membrane leakage)” value ([1]; listed as gHoPe3) was “did not induce any significant membrane leakage” and the Cellular internalization [3] was “exhibited cellular uptake of varying degrees; also recorded: internalized, but to a lesser extent”. The “cell viability (MTS)” value [9] was “did not affect cell viability” and the “cell viability (MTS)” value ([9]; listed as gHoPe3) was “did not induce any toxic effects”.

For “LLIILRRRIRKQAHAHSK-NH2 [FAM-pVEC] ({FAM}-LLIILRRRIRKQAHAHSK-NH2) [pVEC N-terminally labelled with 5(6)-carboxyfluorescein, reference compound]”, the “LDH leakage (membrane leakage)” value [1] was “did not affect cell viability”, the Cellular internalization [3] was “exhibited cellular uptake of varying degrees” and the cellular uptake [4] was “highest”. For the same substance, the “cell viability (MTS)” value [9] was “did not affect cell viability”.
